Experimental data as given in patent US20080069860A1, “HYPERPHOSPHATEMIA IN DOMESTIC ANIMALS: COMPOSITIONS AND METHODS OF TREATMENT” (priority 2005, published 2008).

Legend:
beagle dogs = assay: Dog study, urine phosphate excretion after oral capsules; format: in vivo; settings: 2250 mg elemental lanthanum twice daily, urine approximately 24 hours after dosing
[1] = system: Sprague-Dawley rats underwent 5/6th nephrectomy; assay: In vivo study in 5/6th nephrectomy rats, urine phosphorus excretion; settings: 314 mg elemental lanthanum/kg/day oral, once daily for 14 days, compared to untreated rats
Method: Groups of six adult Sprague-Dawley rats underwent 5/6th nephrectomy in two stages over a period of 2 weeks and were then allowed to recover for a further two weeks prior to being randomized for treatment. The groups received vehicle (0.5% w/v carboxymethyl cellulose), or lanthanum oxycarbonate suspended in vehicle, once daily for 14 days by […] (10 ml/kg/day). The dose delivered 314 mg elemental lanthanum/kg/day. Dosing was carried out immediately before the dark (feeding) cycle on each day. Urine samples (24 hours) were collected prior to surgery, prior to the commencement of treatment, and twice weekly during the treatment period. Volume and phosphorus concentration were measured.
Feeding—During the acclimatization and surgery period, the animals were given Teklad phosphate sufficient diet (0.5% Ca, 0.3%P; Teklad No. TD85343), ad libitum. At the beginning of the treatment period, animals were pair fed based upon the average food consumption of the vehicle-treated animals the previous week.
5/6 Nephrectomy—After one week of acclimatization, all animals were subjected to 5/6 nephrectomy surgery. The surgery was performed in two stages. First, the two lower branches of the left renal artery were ligated. One week later, a right nephrectomy was performed. […]

dogs = assay: Palatability study in dogs; format: in vivo; settings: 9 dogs, during hours post meal
Text: Lanthanum oxycarbonate was mixed with wet and dry dog food and presented to 9 different dogs, almost all over 40 pounds.

Molecule	urine phosphate excretion, a marker of phosphorous binding (beagle dogs)	phosphorus excretion (urine), a marker of dietary phosphorus binding [1]	signs of nausea, vomiting, bloating or flatus (dogs)
O=C([O-])[O-].[La+3].[OH-] [compound A, LaCO3OH]	reduction of urine phosphate excretion		
O=C([O-])[O-].[La+3].[La+3].[O-2].[O-2] [compound B, La2O2CO3]	reduction of urine phosphate excretion		
O=C([O-])[O-].[La+3].[OH-] [lanthanum carbonate hydroxide]		decrease in phosphorus excretion	
lanthanum oxycarbonate		decrease in phosphorus excretion	None of the dogs exhibited signs of nausea, vomiting, bloating or flatus
